From ChEMBL document CHEMBL2331077, “Sacchathridine A, a prostaglandin release inhibitor from Saccharothrix sp” (J Nat Prod, 2013)
Activity calls are given as the source filed them. The calls are words filed in the database; no cut-off is given here.

Tests used:
SW982 [1] = experiment: Inhibition of PGE2 release from bradykinin-stimulated human SW982 cells by fluorescence assay; format: functional, cell-based
SW982 [2] = experiment: Growth inhibition of human SW982 cells up to 30 uM after 48 hrs by cell counting; format: functional, cell-based

Row | IC50 (SW982 [1]) [µM] | Compound | inhibition (SW982 [1]) | growth inhibition (GI) (SW982 [2])
1 | 1 | COC1=C(C)C(=O)c2ccc(O[C@@H]3O[C@@H](C)[C@H](O)[C@@H](O)[C@H]3O)c(NNC(C)=O)c2C1=O [SACCHATHRIDINE A] | Dose-dependent effect | inactive
2 | 0.033 | CS(=O)(=O)c1ccc(-n2nc(C(F)(F)F)cc2-c2ccc(F)cc2)cc1 [SC-58125] |  | 
